Assay: Sapphire rocking cell anti-agglomerant test
Conditions: dose needed for a pass ranking
Description: A Sapphire Rocking Cell RCS is commercially available from PSL Systemtechnik in Germany. The Sapphire Rocking Cell is a laboratory instrument used to test the performance of low dosage hydrate inhibitors. The compounds were evaluated based on their ability to effectively minimize the size of gas hydrate agglomerate particles and disperse those particles into the hydrocarbon phase. Chemical performance was evaluated by determining the maximum treatable water cut (water to oil ratio) and the minimum chemical dosage to register a pass in the rocking cell test.
A rocking cell has two parts, a manifold and a cell body. The manifold is made up of stainless steel fittings that are welded together. It has three stems. An inlet stem is used to charge gas into the cell. An outlet stem is used to release the gas out of the cell. The third stem connects to a transducer, which measures the pressure inside of the cell. The cell body has three layers. The outer layer is a polycarbonate tube, which has a thickness of 0.7 cm. The middle layer is made of stainless steel metal and is connected to the manifold. The inner layer is a high-pressure sapphire tube, which has an outer diameter of 2.8 cm, inner diameter of 1.85 cm, and length of 5 cm. This sapphire tube can handle up to 3000 psi. A stainless steel ball which has a diameter of 1.6 cm is located inside the sapphire tube to induce turbulence and mix fluids during the rocking process.
Test fluids usually contain three components. For the anti-agglomerate test, 7.2 mL of warm crude oil was first injected into the cell. Next, a solution of 30,000 total dissolved solids (TDS) ([…]) of NaCl synthetic brine was injected into the cell to make a 40% water cut mixture. The anti-agglomerate test compound was the final component injected into the cell. The dosage of the test compound was based on the volume of aqueous phase. The initial temperature was set to 21° C. Observations were made every two to three hours, before the rocking was stopped, and also immediately after the restart.
Each cell was charged with Green Canyon gas and pressurized up to 2500 psi. All cells rocked for at least 1.5 to 2 hours until fluid was saturated and pressure stabilized. The rocking was ceased and the tank temperature was reduced to the set point of 4° C. over approximately 8 hours. The cells were then reboosted to a pressure of 2500 psi and remained static for 24 hours. Rocking was restarted for 2 hours with frequent observations to rank each cell with a ranked set of pass/fail criterion. Pressure and tank temperature data was recorded during this time.
The pass/fail criteria are based on the ability of the ball in the rocking cell to move within the sapphire tube. […] In contrast, the anti-agglomerant fails if the ball's movement is obstructed or completely stopped by the formation of gas hydrate agglomerates. The anti-agglomerate's performance is borderline when there are observable gas hydrate agglomerates and at least some of the agglomerates are stuck to the walls of the sapphire tube; when these agglomerates are present and the movement of the ball is not restricted, the anti-agglomerant ranking is a borderline pass.

Row | Structure (SMILES) | Minimum Effective Dose (MED) (Oil B (25% w/c)) | Minimum Effective Dose (MED) (Oil C (35% w/c)) | Minimum Effective Dose (MED) (Oil D (25% w/c))
1 | CCCCN(CCCC)CCCN(CCC(=O)O)C(CC(=O)O)C(=O)OCCCCCCCCCCC(C)C (stereo not drawn) [Reaction 24] | 2.0 vol. % | 3.0 vol. % | 2.0 vol. %
2 | CCCCCCCCCCCCOC(=O)C(CC(=O)O)NCCCN1CCCCCC1 (stereo not drawn) [Reaction 26] | 2.0 vol. % | >3.0 vol. % | 2.0 vol. %

From US11174235B2, “Carboxy alkyl-ester anti-agglomerants for the control of natural gas hydrates” (ChampionX USA Inc., priority 2018, dated 2021)
